Test results: paper PMC8658889, “Seriniquinones as Therapeutic Leads for Treatment of BRAF and NRAS Mutant Melanomas” (Molecules, 2021)
Read-outs that look alike come from different tables or passages of the source.

Assays:
SK-MEL-147 [1] = assay: Clonogenic assay; assay type: cell-based, Human; conditions: for decrease of cell proliferation expressed by colony area: SK-MEL-147, 24 h treatment, 6 days in drug-free medium
Procedure: (§1) […] (2.5 × 10^5) cells in 1 mL of media were seeded in cell culture dishes and, 24 h later, treated with SQ1 (0.3 µM and 0.6 µM for SK-MEL-28 and 0.9 µM and 1.8 µM for SK-MEL-147) or SQ2 (0.05 µM and 0.1 µM for SK-MEL-28 and 0.6 µM and 1.2 µM for SK-MEL-147) for 24 h. Doxorubicin (DOX; 1.4 µM for SK-MEL-28 and 0.8 µM for SK-MEL-147) was used as positive control and 0.5% DMSO as negative control.
After the cells were submitted to the treatment scheme (Section 4.6), adherent cells were collected, plated at 1 × 10^3 cell/plate on 35-mm plates and maintained in culture for 6 days in treatment-free medium. The medium was replaced every 2 days. Cells were then fixed and stained with a solution of 20% MeOH (Synth, Diadema, São Paulo, Brazil) and 0.5 g crystal violet (Sigma-Aldrich, St. Louis, MO, USA). Images were acquired using G:BOX Chemi XRQ (Syngene, Cambridge, UK) and quantified using the ImageJ program (ColonyArea; US National Institutes of Health, Bethesda, MD, USA).

DCD gene [2] = assay: DCD gene expression by qPCR in SK-MEL-28; assay type: cell-based, Human; conditions: SK-MEL-28, 24 h
Procedure: as §1
(§2) Treated cells (Section 4.6) had their total RNA extracted and purified using TRIzol reagent (Thermo Fisher Scientific, San Jose, CA, USA), in accordance with the manufacturer’s recommendations. For analysis of DCD expression, purified total RNA was quantified using an Eon Microplate Spectrophotometer (BioTek Instruments, Winooski, VT, USA). Quantitative PCR (qPCR) was conducted on a Rotor Gene 6000 real-time cycler (Corbett Life Science, Sydney, NSW, Australia) using GoTaq 1-Step RT-qPCR System (Promega, Madison, WI, EUA). The cycle conditions were as follows: 45 °C for 10 min, 95 °C for 15 min and 40 cycles of 95 °C for 15 s; 60 °C for 60 s, followed by the melt. Relative expression was calculated using the comparative CT method Delta-Delta-Ct (DDCt). The primer sequences and concentrations utilized (DCD and RPLPO) can be consulted in Table S3.

MRC-5 = assay: MTT cytotoxicity assay; conditions: MRC-5 non-tumor fibroblasts, 72 h treatment, MTT
DCD gene [3] = assay: DCD gene expression by qPCR in SK-MEL-147; assay type: cell-based, Human; conditions: SK-MEL-147, 24 h
Procedure: as §1, §2

SK-MEL-147 [4] = assay: Western blotting of apoptosis and autophagy markers; assay type: cell-based, Human; conditions: SK-MEL-147, 24 h
Procedure: as §1
(§3) Treated cells (Section 4.6) had their proteins extracted with the following solution: 10 mM ethylenediaminetetraacetic acid (EDTA), 10% triton, 2 mM phenylmethanesulfonyl fluoride (PMSF), 10 mM Tris base, 10 mM sodium pyrophosphate, 100 mM sodium fluoride, 2.5 mM sodium orthovanadate, and deionized water. The resulting extract was quantified for protein concentration and 30 µg of protein were subjected to SDS-PAGE and to Western blot analysis with the indicated antibodies: cleaved PARP-1 (#5625), PARP1 (#9542), cleaved caspase-3 (#9604), caspase-3 (#9662), SQSTM1/p62 (#5114), LC3B (#2775), and α-tubulin (#2144) from Cell Signaling Technology (Danvers, MA, USA). Images of membranes were made using Pierce ECL Western Blotting Substrate (Thermo Fisher Scientific, San Jose, CA, USA) and G:BOX Chemi XRQ (Syngene, Cambridge, UK). Band intensities were quantified using UN-SCAN-IT gel 6.1 software (Silk Scientific; Orem, UT, USA).

SK-MEL-28 [5] = assay: as above; assay type: cell-based, Human; conditions: SK-MEL-28, 24 h
Procedure: as §1, §3

[6] = design: method as in PMID 30783501; conditions: organic and aqueous media, cited from earlier work
SK-MEL-147 [7] = assay: Trypan blue exclusion test (cell viability); assay type: cell-based, Human; conditions: for number of viable cells: SK-MEL-147, 24-h treatment, 1.0, 2.5 or 5.0 µM
Procedure: (§4) Fifty thousand (5 × 10^4) cells in 1 mL of media were seeded in cell culture dishes and, 24 h later, treated with SQ1 or SQ2 (1.0, 2.5, and 5.0 µM), vehicle (DMSO) and doxorubicin (DOX, positive control) for 24 h. Cells were detached, stained with Trypan Blue solution 0.4% (1:10, v/v; Sigma-Aldrich, St. Louis, MO, USA) and counted in a Neubauer chamber under optical microscopy to determine concentrations of viable and non-viable cells.

SK-MEL-28 [8] = assay: Trypan blue exclusion test (cell viability); assay type: cell-based, Human; conditions: SK-MEL-28, 24-h treatment, 1.0, 2.5 or 5.0 µM
Procedure: as §4

Compound: CC(C)(O)C(O)CCc1ccc2c(=O)c3sc4c(=O)c5ccccc5c(=O)c4c3c(=O)c2c1 (stereo not drawn) [SQ2]
- decrease of cell proliferation expressed by colony area (SK-MEL-147 [1]): 50%
- DCD expression up-regulation relative to control (DCD gene [2]; 0.1 µM): three
- IC50 (MRC-5; Homo sapiens, MRC5, 72 h): 1570 nM
- DCD overexpression relative to control (DCD gene [3]; 1.2 µM): eight
- apoptotic markers (cleaved PARP-1, cleaved caspase-3) (SK-MEL-147 [4]): increase of typical apoptotic markers
- apoptotic markers (cleaved PARP-1, cleaved caspase-3) (SK-MEL-28 [5]): increase of typical apoptotic markers
- solubility [6]: improved solubility
- number of viable cells (SK-MEL-147 [7]): significantly reducing the number of viable cells
- proportion of non-viable cells (SK-MEL-147 [7]; SK-MEL-147, 24 h, 2.5 and 5.0 µM): significantly higher
- number of viable cells (SK-MEL-28 [8]): significantly reducing the number of viable cells

Compound: O=c1c2ccccc2c(=O)c2c1sc1c(=O)c3ccccc3c(=O)c12 [SQ1, seriniquinone]
- reduction of the colony levels (SK-MEL-147 [1]; SK-MEL-147, 24 h treatment at half IC50 and IC50, 6 days in drug-free medium): greater than 50%
- decrease of cell proliferation expressed by colony area (SK-MEL-147 [1]): 50%
- DCD expression increase relative to control (DCD gene [2]; 0.3 µM): twofold
- DCD expression increase relative to control (DCD gene [2]; 0.6 µM): 20 times
- IC50 (MRC-5; Homo sapiens, MRC5, 72 h): 640 nM
- IC50 (MRC-5): 600 nM
- DCD expression relative to control (DCD gene [3]; 1.8 µM): twofold
- apoptotic markers (cleaved PARP-1, cleaved caspase-3) (SK-MEL-147 [4]): increase of typical apoptotic markers
- apoptotic markers (cleaved PARP-1, cleaved caspase-3) (SK-MEL-28 [5]): increase of typical apoptotic markers
- autophagic flux (p62) (SK-MEL-28 [5]): extinction of p62
- solubility [6]: lack of solubility
- solubility ([6]; listed as seriniquinone): poor water-solubility
- number of viable cells (SK-MEL-147 [7]): significantly reducing the number of viable cells
- number of viable cells (SK-MEL-28 [8]): significantly reducing the number of viable cells
